Data taken from patent US20250228239A1, “MOLECULES HAVING PESTICIDAL UTILITY, AND INTERMEDIATES, COMPOSITIONS, AND PROCESSES, RELATED THERETO” (priority 2024, published 2025).

Experiments:
Format in all cases: in vivo
[1] = test system: Yellow Fever Mosquito (Aedes aegypti, AEDSAE); details: Yellow Fever Mosquito, Table ABC / ABC-DP rating
In short: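 Compounds from 4000 ppm DMSO stocks were diluted in 90:10 water/acetone and dispensed into wells, then infested with about 1-day-old larvae in liver-powder water. Covered plates were held at room temperature for 3 days and each well was scored for mortality against a rating scale; six replicate plates per compound.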

[2] = test system: Cabbage Looper (Trichoplusia ni, TRIPNI); assay: Bioassays on Cabbage Looper (CL), 128-well diet tray assay; details: Trichoplusia ni; Cabbage Looper, Table ABC / ABC-DP rating; read-out: CL rating
In short: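 One to five second-instar larvae per well on artificial diet surface-treated with 50 μg/cm^2 test molecule (applied in 90:10 acetone-water, dried). Held 5–7 days at 25° C, 14:10 light-dark; percent mortality recorded per well and averaged over eight wells.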

[3] = test system: Beet Armyworm (Spodoptera exigua, LAPHEG); assay: Bioassays on Beet Armyworm (BAW), 128-well diet tray assay; details: Spodoptera exigua; Beet Armyworm, Table ABC / ABC-DP rating; read-out: BAW rating
In short: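 Percent larval mortality, averaged across eight wells, scored after five to seven days at 25° C. under 14:10 light-dark. Each well held one to five second instars feeding on diet dosed at 50 μg/cm^2 with compound from 90:10 acetone-water, solvent dried off.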

Row | SMILES | YFM rating [1] | pest or weed control at 50 µg/cm2 [2] [%] | pest or weed control at 50 µg/cm2 [3] [%]
1 | O=C(Nc1ccc(F)c(NC(=O)C(F)(F)F)c1)c1cc(NC(=O)[C@H]2[C@H](c3cc(Cl)cc(Cl)c3)C2(Cl)Cl)ccc1Cl [F1813, 2-Chloro-5-((1R,3R)-2,2-dichloro-3-(3,5-dichlorophenyl)cyclopropane-1-carboxamido)-N-(4-fluoro-3-(2,2,2-trifluoroacetamido)phenyl)benzamide] | A (80–100) | 50 to 100 | 50 to 100
2 | O=C(Nc1ccc(F)c(NC(=O)C(F)(F)F)c1)c1cc(NC(=O)[C@H]2[C@H](c3ccc(F)c(Cl)c3)C2(Cl)Cl)ccc1Cl [F1814, 2-Chloro-5-((1R,3R)-2,2-dichloro-3-(3-chloro-4-fluorophenyl)cyclopropane-1-carboxamido)-N-(4-fluoro-3-(2,2,2-trifluoroacetamido)phenyl)benzamide] | A (80–100) | 50 to 100 | 50 to 100
3 | O=C(Nc1ccc(F)c(NC(=O)C(F)(F)F)c1)c1cc(NC(=O)[C@H]2[C@H](c3ccc(F)c(C(F)(F)F)c3)C2(Cl)Cl)ccc1Cl [F1815, 2-Chloro-5-((1R,3R)-2,2-dichloro-3-(4-fluoro-3-(trifluoromethyl)phenyl)cyclopropane-1-carboxamido)-N-(4-fluoro-3-(2,2,2-trifluoroacetamido)phenyl)benzamide] | A (80–100) | 50 to 100 | 50 to 100
4 | O=C(Nc1c(F)ccc(NC(=O)c2cc(NC(=O)[C@H]3[C@H](c4ccc(F)c(C(F)(F)F)c4)C3(Cl)Cl)ccc2Cl)c1F)c1ccon1 [F1818, N-(3-(2-Chloro-5-((1R,3R)-2,2-dichloro-3-(4-fluoro-3-(trifluoromethyl)phenyl)cyclopropane-1-carboxamido)benzamido)-2,6-difluorophenyl)isoxazole-3-carboxamide] | A (80–100) | 50 to 100 | 50 to 100
5 | O=C(Nc1c(F)ccc(NC(=O)c2cc(NC(=O)[C@H]3[C@H](c4ccc(F)c(C(F)(F)F)c4)C3(Cl)Cl)ccc2Cl)c1F)c1ccn(CC(F)(F)F)n1 [F1819, N-(3-(2-Chloro-5-((1R,3R)-2,2-dichloro-3-(4-fluoro-3-(trifluoromethyl)phenyl)cyclopropane-1-carboxamido)benzamido)-2,6-difluorophenyl)-1-(2,2,2-trifluoroethyl)-1H-pyrazole-3-carboxamide] | A (80–100) | 50 to 100 | 50 to 100
6 | CCOC(=O)C(F)C(=O)Nc1c(F)ccc(NC(=O)c2cc(NC(=O)[C@H]3[C@H](c4ccc(F)c(C(F)(F)F)c4)C3(Cl)Cl)ccc2Cl)c1F (stereo partly drawn) [F1822, Ethyl 3-((3-(2-chloro-5-((1R,3R)-2,2-dichloro-3-(4-fluoro-3-(trifluoromethyl)phenyl)cyclopropane-1-carboxamido)benzamido)-2,6-difluorophenyl)amino)-2-fluoro-3-oxopropanoate] | A (80–100) | 50 to 100 | 50 to 100
7 | N#CCC(=O)N(CCF)c1c(F)ccc(NC(=O)c2cc(NC(=O)[C@H]3[C@H](c4ccc(F)c(C(F)(F)F)c4)C3(Cl)Cl)ccc2Cl)c1F [F1823, 2-Chloro-N-(3-(2-cyano-N-(2-fluoroethyl)acetamido)-2,4-difluorophenyl)-5-((1R,3R)-2,2-dichloro-3-(4-fluoro-3-(trifluoromethyl)phenyl)cyclopropane-1-carboxamido)benzamide] | A (80–100) | 50 to 100 | 50 to 100
8 | O=C(Nc1ccc(F)c(NCCF)c1F)c1cc(NC(=O)[C@H]2[C@H](c3ccc(F)c(C(F)(F)F)c3)C2(Cl)Cl)ccc1Cl [F1826, 2-Chloro-5-((1R,3R)-2,2-dichloro-3-(4-fluoro-3-(trifluoromethyl)phenyl)cyclopropane-1-carboxamido)-N-(2,4-difluoro-3-((2-fluoroethyl)amino)phenyl)benzamide] | A (80–100) | 50 to 100 | 50 to 100
9 | CCOC(C)C(=O)N(CC)c1c(F)ccc(NC(=O)c2cc(NC(=O)[C@H]3[C@H](c4ccc(F)c(C(F)(F)F)c4)C3(Cl)Cl)ccc2Cl)c1F (stereo partly drawn) [F1827, 2-Chloro-5-((1R,3R)-2,2-dichloro-3-(4-fluoro-3-(trifluoromethyl)phenyl)cyclopropane-1-carboxamido)-N-(3-(2-ethoxy-N-ethylpropanamido)-2,4-difluorophenyl)benzamide] | A (80–100) | 50 to 100 | 50 to 100
10 | O=C(CCC(F)(C(F)(F)F)C(F)(F)F)Nc1c(F)ccc(NC(=O)c2cc(NC(=O)[C@H]3[C@H](c4ccc(F)c(C(F)(F)F)c4)C3(Cl)Cl)ccc2Cl)c1F [F1829, 2-Chloro-5-((1R,3R)-2,2-dichloro-3-(4-fluoro-3-(trifluoromethyl)phenyl)cyclopropane-1-carboxamido)-N-(2,4-difluoro-3-(4,5,5,5-tetrafluoro-4-(trifluoromethyl)pentanamido)phenyl)benzamide] | A (80–100) | 50 to 100 | 50 to 100
11 | O=C(CCCC(F)(F)F)Nc1c(F)ccc(NC(=O)c2cc(NC(=O)[C@H]3[C@H](c4ccc(F)c(C(F)(F)F)c4)C3(Cl)Cl)ccc2Cl)c1F [F1830, 2-Chloro-5-((1R,3R)-2,2-dichloro-3-(4-fluoro-3-(trifluoromethyl)phenyl)cyclopropane-1-carboxamido)-N-(2,4-difluoro-3-(5,5,5-trifluoropentanamido)phenyl)benzamide] | A (80–100) | 50 to 100 | 50 to 100
12 | O=C(Nc1ccc(F)c(NC(=O)C(Br)CC(F)(F)F)c1F)c1cc(NC(=O)[C@H]2[C@H](c3ccc(F)c(C(F)(F)F)c3)C2(Cl)Cl)ccc1Cl (stereo partly drawn) [F1831, N-(3-(2-Bromo-4,4,4-trifluorobutanamido)-2,4-difluorophenyl)-2-chloro-5-((1R,3R)-2,2-dichloro-3-(4-fluoro-3-(trifluoromethyl)phenyl)cyclopropane-1-carboxamido)benzamide] | A (80–100) | 50 to 100 | 50 to 100
13 | O=C(CC1(C(F)(F)F)CC1)Nc1c(F)ccc(NC(=O)c2cc(NC(=O)[C@H]3[C@H](c4ccc(F)c(C(F)(F)F)c4)C3(Cl)Cl)ccc2Cl)c1F [F1836, 2-Chloro-5-((1R,3R)-2,2-dichloro-3-(4-fluoro-3-(trifluoromethyl)phenyl)cyclopropane-1-carboxamido)-N-(2,4-difluoro-3-(2-(1-(trifluoromethyl)cyclopropyl)acetamido)phenyl)benzamide] | A (80–100) | 50 to 100 | 50 to 100
14 | CCCN(C(=O)CC#N)c1c(F)ccc(NC(=O)c2cc(NC(=O)[C@H]3[C@H](c4ccc(F)c(C(F)(F)F)c4)C3(Cl)Cl)ccc2Cl)c1F [F1841, 2-Chloro-N-(3-(2-cyano-N-propylacetamido)-2,4-difluorophenyl)-5-((1R,3R)-2,2-dichloro-3-(4-fluoro-3-(trifluoromethyl)phenyl)cyclopropane-1-carboxamido)benzamide] | A (80–100) | 50 to 100 | 50 to 100
15 | CCCN(C(=O)C(C)OCC)c1c(F)ccc(NC(=O)c2cc(NC(=O)[C@H]3[C@H](c4ccc(F)c(C(F)(F)F)c4)C3(Cl)Cl)ccc2Cl)c1F (stereo partly drawn) [F1842, 2-Chloro-5-((1R,3R)-2,2-dichloro-3-(4-fluoro-3-(trifluoromethyl)phenyl)cyclopropane-1-carboxamido)-N-(3-(2-ethoxy-N-propylpropanamido)-2,4-difluorophenyl)benzamide] | A (80–100) | 50 to 100 | 50 to 100
16 | CC(F)(F)CCC(=O)Nc1c(F)ccc(NC(=O)c2cc(NC(=O)[C@H]3[C@H](c4ccc(F)c(C(F)(F)F)c4)C3(Cl)Cl)ccc2Cl)c1F [F1843, 2-Chloro-5-((1R,3R)-2,2-dichloro-3-(4-fluoro-3-(trifluoromethyl)phenyl)cyclopropane-1-carboxamido)-N-(3-(4,4-difluoropentanamido)-2,4-difluorophenyl)benzamide] | A (80–100) | 50 to 100 | 50 to 100
17 | O=C(CCC(F)(F)C(F)(F)F)Nc1c(F)ccc(NC(=O)c2cc(NC(=O)[C@H]3[C@H](c4ccc(F)c(C(F)(F)F)c4)C3(Cl)Cl)ccc2Cl)c1F [F1844, 2-Chloro-5-((1R,3R)-2,2-dichloro-3-(4-fluoro-3-(trifluoromethyl)phenyl)cyclopropane-1-carboxamido)-N-(2,4-difluoro-3-(4,4,5,5,5-pentafluoropentanamido)phenyl)benzamide] | A (80–100) | 50 to 100 | 50 to 100
18 | O=C(CCC(F)(F)F)Nc1c(F)ccc(NC(=O)c2cc(NC(=O)[C@H]3[C@H](c4ccc(Cl)c(Cl)c4)C3(Cl)Cl)ccc2Cl)c1F [F1847, 2-Chloro-5-((1R,3R)-2,2-dichloro-3-(3,4-dichlorophenyl)cyclopropane-1-carboxamido)-N-(2,4-difluoro-3-(4,4,4-trifluorobutanamido)phenyl)benzamide] | A (80–100) | 50 to 100 | 50 to 100
